Consider 22 compounds from patent US5712300A, “Hydroxamic acid derivatives useful for the treatment of diseases related to connective tissue degradation” (priority 1997, dated 1998).

Holding throughout (assay type): biochemical
The target in one assay is Gelatinase. The experiment in a line: MMP inhibition by particle concentration fluorescence technique (gelatinase). To be noted: pH 7.5; 15 min enzyme preincubation; substrate 1-3 h at room temperature; read-out: MMP Inhibition Constants, Gelatinase Ki. How it is done: (§1) Inhibitory activity is evaluated in one or more of the MMP enzymes (stromelysin, gelatinase, and collagenase) in vitro using a particle concentration fluorescence techniques. An inhibitor binds to MMP enzymes prevents the degradation of a substrate of stromelysin, gelatinase, or collagenase. The substrate is attached with a fluorescein and a biotin. The intact substrate then binds to an avidin-coated particle via the biotin moiety. Once the particle is washed and dried, a fluorescent signal is generated since the fluorescent group is attached to the particle. Without an inhibitor present, the substrate is degraded by MMP enzymes and the fluorescein group is removed, therefore, no fluorescent signal can be detected. Testing compounds are dissolved in DMSO to the desired concentration, then the solutions are diluted to 1:5 with MMP buffer (50 mM Tris-HCl, pH 7.5; 150 mM NaCl; 0.02% NAN3). Serial two-fold dilutions of each compound are prepared. A concentrated, activated enzyme solution is transferred into each plate of the testing compounds, and the mixture is incubated at room temperature for 15 minutes. Thawed MMP substrate is then added into all plates, and the plates are incubate in the dark for 1-3 hours at room temperature. At this point, the substrate mixture is reacted with 0.1% avidin-coated polystyrene particles.

For the next assay, the target named is Stromelysin (Homo sapiens, UniProt P08254). The experiment in a line: MMP inhibition by particle concentration fluorescence technique (stromelysin). Conditions: pH 7.5; 15 min enzyme preincubation; substrate 1-3 h at room temperature; read-out: MMP Inhibition Constants, Stromelysin Ki. The text has this:
An inhibitor binds to MMP enzymes prevents the degradation of a substrate of stromelysin, gelatinase, or collagenase. The substrate is attached with a fluorescein and a biotin. The intact substrate then binds to an avidin-coated particle via the biotin moiety. Once the particle is washed and dried, a fluorescent signal is generated since the fluorescent group is attached to the particle. Without an inhibitor present, the substrate is degraded by MMP enzymes and the fluorescein group is removed, therefore, no fluorescent signal can be detected. […] Serial two-fold dilutions of each compound are prepared. A concentrated, activated enzyme solution is transferred into each plate of the testing compounds, and the mixture is incubated at room temperature for 15 minutes.

For the next assay, the target named is T1, Collagenase (Homo sapiens, UniProt P03956).
T1 sequence (P03956 100-469): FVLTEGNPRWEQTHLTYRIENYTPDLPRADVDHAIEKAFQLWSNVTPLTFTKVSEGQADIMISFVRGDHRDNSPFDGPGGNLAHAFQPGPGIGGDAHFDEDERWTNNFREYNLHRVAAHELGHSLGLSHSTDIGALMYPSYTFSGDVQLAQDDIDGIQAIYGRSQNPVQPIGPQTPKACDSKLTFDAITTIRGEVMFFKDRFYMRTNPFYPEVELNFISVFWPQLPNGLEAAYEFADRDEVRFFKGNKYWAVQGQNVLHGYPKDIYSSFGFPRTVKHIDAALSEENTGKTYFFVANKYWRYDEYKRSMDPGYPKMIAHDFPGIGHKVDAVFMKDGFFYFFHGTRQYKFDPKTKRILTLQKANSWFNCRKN
The experiment in a line: MMP inhibition by particle concentration fluorescence technique (collagenase). Conditions: pH 7.5; 15 min enzyme preincubation; substrate 1-3 h at room temperature; read-out: MMP Inhibition Constants, Collagenase Ki. How it is done:
as §1

Molecules are shown by their SMILES.

Chain of Stromelysin (P08254 100-477): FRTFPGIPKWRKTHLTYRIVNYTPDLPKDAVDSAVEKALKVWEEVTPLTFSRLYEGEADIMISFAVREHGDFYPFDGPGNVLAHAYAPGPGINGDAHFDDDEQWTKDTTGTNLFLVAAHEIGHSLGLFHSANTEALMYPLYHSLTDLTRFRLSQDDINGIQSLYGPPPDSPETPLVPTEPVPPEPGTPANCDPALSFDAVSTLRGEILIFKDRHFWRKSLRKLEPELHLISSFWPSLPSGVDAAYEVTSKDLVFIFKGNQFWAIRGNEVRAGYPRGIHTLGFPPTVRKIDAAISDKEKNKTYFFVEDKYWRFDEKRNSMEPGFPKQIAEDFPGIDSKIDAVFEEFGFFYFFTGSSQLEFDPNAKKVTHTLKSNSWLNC

In the case of `CC(C)C[C@@]1([C@@H](CCN2C(=O)c3cc4ccccc4cc3C2=O)C(=O)NO)CCN(CCc2ccccc2)C1=O` (relative stereo) [Example 6], the results for the Ki on Gelatinase and on Stromelysin were 0.082 µM and 0.491 µM, respectively. For `CC(C)C[C@@]1([C@@H](CCN2C(=O)c3c(F)c(F)c(F)c(F)c3C2=O)C(=O)NO)CCN(CCc2ccccc2)C1=O` (relative stereo) [Example 7, N-Hydroxy-3-(2-methylpropyl)-2-oxo-1-(2-phenylethyl)-α-[2-(4,5,6,7-tetrafluoro-1,3-dihydro-1,3-dioxo-2H-isoindol-2-yl)ethyl]-3-pyrrolidineacetamide], in that order: 1.42 µM and 1.27 µM. Taken in the same sequence, the figures for `CC(C)C[C@@]1([C@@H](CCN2C(=O)c3cc(Cl)c(Cl)cc3C2=O)C(=O)NO)CCN(CCc2ccccc2)C1=O` (relative stereo) [Example 8, α-[2-(5,6-Dichloro-1,3-dihydro-1,3-dioxo-2H-isoindol-2-yl)ethyl]-N-hydroxy-3-(2-methylpropyl)-2-oxo-1-(2-phenylethyl)-3-pyrrolidineacetamide] were 0.734 µM and 1.14 µM. On to `CC(C)C[C@@]1([C@@H](CCN2C(=O)c3cccc([N+](=O)[O-])c3C2=O)C(=O)NO)CCN(CCc2ccccc2)C1=O` (relative stereo) [Example 10, N-Hydroxy-3-(2-methylpropyl)-α-[2-(4-nitro-1,3-dihydro-1,3-dioxo-2H-isoindol-2-yl)ethyl]-2-oxo-1-(2-phenylethyl)-3-pyrrolidineacetamide], for which, on Stromelysin, the Ki was determined as 6.04 µM. For `CC(C)C[C@@]1([C@@H](CCN2C(=O)c3cccc(F)c3C2=O)C(=O)NO)CCN(CCc2ccccc2)C1=O` (relative stereo) [Example 12, α-[2-(4-Fluoro-1,3-dihydro-1,3-dioxo-2H-isoindol-2-yl)ethyl]-N-hydroxy-3-(2-methylpropyl)-2-oxo-1-(2-phenylethyl)-3-pyrrolidineacetamide], the Ki on Gelatinase amounted to 0.312 µM; on Stromelysin, 0.12 µM. For `CC(C)C[C@@]1([C@@H](CCN2C(=O)c3c(F)ccc(F)c3C2=O)C(=O)NO)CCN(CCc2ccccc2)C1=O` (relative stereo) [Example 13, α-[2-(4,7-Difluoro-1,3-dihydro-1,3-dioxo-2H-isoindol-2-yl)ethyl]-N-hydroxy-3-(2-methylpropyl)-2-oxo-1-(2-phenylethyl)-3-pyrrolidineacetamide], in that order: 0.28 µM and 0.334 µM. For the compound `CC(C)C[C@@]1([C@@H](CCSc2cccs2)C(=O)NO)CCN(CCc2ccccc2)C1=O` (relative stereo) [Example 17, N-Hydroxy-3-(2-methylpropyl)-2-oxo-1-(2-phenylethyl)-α-[2-(2-thienylthio)ethyl]-3-pyrrolidineacetamide], the values for the inhibition constant (Ki) at Gelatinase and at Stromelysin were 4.09 µM and 2.22 µM, respectively. For the compound `CC(C)C[C@@]1([C@@H](CCCSc2cccs2)C(=O)NO)CCN(CCc2ccccc2)C1=O` (relative stereo) [Example 18], the Ki is 3.04 µM at Gelatinase and 1.47 µM on Stromelysin. In the case of `CC(C)C[C@@]1([C@@H](CCN2C(=O)c3c(F)c(F)c(F)c(F)c3C2=O)C(=O)NO)CCN(Cc2ccccc2)C1=O` (relative stereo) [Example 24, N-Hydroxy-3-(2-methylpropyl)-2-oxo-1-(phenylmethyl)-α-[2-(4,5,6,7-tetrafluoro-1,3-dihydro-1,3-dioxo-2H-isoindol-2-yl)ethyl]-3-pyrrolidineacetamide], on Stromelysin, the Ki was found to be 7 µM. As for `CNC(=O)CN1CC[C@@](CC(C)C)([C@@H](CCN2C(=O)c3ccccc3C2=O)C(=O)NO)C1=O` (relative stereo) [Example 26, α^3-[2-(1,3-Dihydro-1,3-dioxo-2H-isoindol-2-yl)ethyl]-N^3-hydroxy-N^1-methyl-3-(2-methylpropyl)-2-oxo-1,3-pyrrolidinediacetamide], the Ki is 0.998 µM at Gelatinase and 0.713 µM on Stromelysin. Take `CNC(=O)CN1CC[C@@](CC(C)C)([C@@H](CCN2C(=O)c3c(F)c(F)c(F)c(F)c3C2=O)C(=O)NO)C1=O` (relative stereo) [Example 27, N^3 -Hydroxy-N^1-methyl-3-(2-methylpropyl)-2-oxo-α^3-[2-(4,5,6,7-tetrafluoro-1,3-dihydro-1,3-dioxo-2H-isoindol-2-yl)ethyl]-1,3-pyrrolidinediacetamide]: the Ki at Gelatinase amounted to 16.5 µM; at Stromelysin it was 11 µM. `CC(C)C[C@@]1([C@@H](CCNS(=O)(=O)c2ccc(F)cc2)C(=O)NO)CCN(CCc2ccccc2)C1=O` (relative stereo) [Example 81, α-[2-[[(4-Fluorophenyl)sulfonyl]amino]ethyl]-N-hydroxy-3-(2-methylpropyl)-2-oxo-1-(2-phenylethyl)-3-pyrrolidineacetamide]: on Gelatinase, the Ki came out at 1.4 µM. For the compound `CC(C)C[C@@]1([C@@H](CCN2Cc3cc(F)c(F)cc3C2=O)C(=O)NO)CCN(CCc2ccccc2)C1=O` (relative stereo) [Example 85, 5,6-Difluoro-1,3-dihydro-N-hydroxy-α-[3-(2-methylpropyl)-2-oxo-1-(2-phenylethyl)-3-pyrrolidinyl]-1-oxo-2H-isoindole-2-butanamide], the Ki on Gelatinase turned out to be 0.031 µM; at Stromelysin, 0.116 µM. Taken in the same sequence, the figures for `CC(C)CC1(C(CSc2cccs2)C(=O)NO)CCN(CCc2ccccc2)C1=O` (stereo not drawn) [Example 19, N-Hydroxy-3-(2-methylpropyl)-2-oxo-1-(2-phenylethyl)-α-[2-(2-thienylthio)methyl]-3-pyrrolidineacetamide] were 2.47 µM and 2.77 µM. `CNC(=O)[C@H](CC1CCCCC1)N1CC[C@](CC(=O)NO)(CC(C)C)C1=O` [Example 33, [S-(R*,R*)]-α^1-(Cyclohexylmethyl)-N^3-hydroxy-N^1-methyl-3-(2-methylpropyl)-2-oxo-1,3-pyrrolidinediacetamide]: the Ki on Collagenase is 0.031 µM.

As to `CC(C)CC1(CC(=O)NO)CC(=O)N(CCc2ccccc2)C1=O` (stereo not drawn) [Example 35, N-Hydroxy-3-(2-methylpropyl)-2,5-dioxo-1-(2-phenylethyl)-3-pyrrolidineacetamide], at Stromelysin, the Ki amounted to 3.12 µM.

As to `CC(C)CC1(CC(=O)NO)C(=O)N(CCc2ccccc2)C(=O)N1C` (stereo not drawn) [Example 36, N-Hydroxy-3-methyl-4-(2-methylpropyl)-2,5-dioxo-1-(2-phenylethyl)-4-imidazolidineacetamide], the Ki on Gelatinase was 44 µM; on Stromelysin it was 2.4 µM. With `CC(C)CC1(CC(=O)NO)NC(=O)N(CCc2ccccc2)C1=O` (stereo not drawn) [Example 37, N-Hydroxy-4-(2-methylpropyl)-2,5-dioxo-1-(2-phenylethyl)-4-imidazolidineacetamide], the Ki at Stromelysin was found to be 4.74 µM. For the compound `CNC(=O)[C@H](Cc1ccccc1)N1CC[C@@](CC(C)C)([C@H](CCN2C(=O)c3ccccc3C2=O)C(=O)NO)C1=O` [Example 58, [3S-[1(R*),3R*(R*)]]-α^3-[2-(1,3-Dihydro-1,3-dioxo-2H-isoindol-2-yl)ethyl]-N^3-hydroxy-N^1-methyl-3-(2-methylpropyl)-2-oxo-α^1-(phenylmethyl)-1,3-pyrrolidinediacetamide], the Ki was found to be 0.0029 µM on Gelatinase and 0.023 µM on Stromelysin.

Consider `CC(C)C[C@@]1([C@H](CCN2C(=O)c3ccccc3C2=O)C(=O)NO)CCN(CCc2ccccc2)C1=O` [Example 71, [S-(R*,R*)]-1,3-Dihydro-N-hydroxy-α-[3-(2-methylpropyl)-2-oxo-1-(2-phenylethyl)-3-pyrrolidinyl]-1,3-dioxo-2H-isoindole-2-butanamide], for which the inhibitory constant (Ki) on Collagenase was 0.098 µM. On to `CC(C)C[C@@]1([C@@H](CCNS(=O)(=O)c2ccc(F)cc2)C(=O)NO)CCN(CCc2ccccc2)C1=O` [Example 84, [R-(R*,S*)]-α-[2-[[(4-Fluorophenyl)sulfonyl]amino]ethyl]-N-hydroxy-3-(2-methylpropyl)-2-oxo-1-(2-phenylethyl)-3-pyrrolidineacetamide], for which the Ki at Gelatinase amounted to 3 µM.

`CC(C)C[C@@]1([C@@H](CCN2Cc3cc(F)c(F)cc3C2=O)C(=O)NO)CCN(CCc2ccccc2)C1=O` [Example 89, [R-(R*,S*)]-5,6-Difluoro-1,3-dihydro-N-hydroxy-α-[3-(2-methylpropyl)-2-oxo-1-(2-phenylethyl)-3-pyrrolidinyl]-1-oxo-2H-isoindole-2-butanamide]: the results for the Ki on Gelatinase and at Stromelysin were 0.146 µM and 0.318 µM, respectively.
